One series has as its target Nav 1.7 (Homo sapiens (Human), UniProt Q15858). In words: Nav 1.7 in vitro PX assay (PatchXpress whole cell voltage clamp). Particulars: 293 cells, human Nav1.7, partially inactivated state; read-out: Nav1.7 PX IC50 IP. It counts as cell-based. The method in brief:
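Partially inactivated channel state (holding potential for 20–50% inactivation) probed in human Nav1.7-transfected 293 cells by automated patch clamp, test pulse −10 mV for 20 msec.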

The next series has as its target Nav 1.5 (Homo sapiens (Human), UniProt Q14524). In words: Nav 1.5 in vitro PX assay (PatchXpress whole cell voltage clamp). It counts as cell-based. Particulars: 293 cells stably transfected with Nav 1.5; second part of table; read-out: Nav1.5 PX IC50. The protocol: Nav 1.5 In Vitro PX Assay
293 cells stably transfected with Nav 1.5 were recorded in whole cell voltage clamp mode with the PatchXpress automated electrophysiology system according the manufacturer's specifications (Molecular Devices, LLC, Sunnyvale, Calif.). Cells were held at a holding potential of −50 mV to inactivate sodium channels. To elicit sodium currents the voltage was changed to −120 mV to recover a portion of the channels, followed by delivery of test pulses of 20 msec duration to 0 mV, at 0.1 Hz. A single concentration of test compound was applied to cells for a duration of 5 minutes. Peak sodium current was measured at the end of the compound addition period to determine percent inhibition. A minimum of two cells were tested per concentration. IC50 curves were fitted to percent inhibition as a function of concentration.

Nav 1.7, sequence (Q15858 whole entry): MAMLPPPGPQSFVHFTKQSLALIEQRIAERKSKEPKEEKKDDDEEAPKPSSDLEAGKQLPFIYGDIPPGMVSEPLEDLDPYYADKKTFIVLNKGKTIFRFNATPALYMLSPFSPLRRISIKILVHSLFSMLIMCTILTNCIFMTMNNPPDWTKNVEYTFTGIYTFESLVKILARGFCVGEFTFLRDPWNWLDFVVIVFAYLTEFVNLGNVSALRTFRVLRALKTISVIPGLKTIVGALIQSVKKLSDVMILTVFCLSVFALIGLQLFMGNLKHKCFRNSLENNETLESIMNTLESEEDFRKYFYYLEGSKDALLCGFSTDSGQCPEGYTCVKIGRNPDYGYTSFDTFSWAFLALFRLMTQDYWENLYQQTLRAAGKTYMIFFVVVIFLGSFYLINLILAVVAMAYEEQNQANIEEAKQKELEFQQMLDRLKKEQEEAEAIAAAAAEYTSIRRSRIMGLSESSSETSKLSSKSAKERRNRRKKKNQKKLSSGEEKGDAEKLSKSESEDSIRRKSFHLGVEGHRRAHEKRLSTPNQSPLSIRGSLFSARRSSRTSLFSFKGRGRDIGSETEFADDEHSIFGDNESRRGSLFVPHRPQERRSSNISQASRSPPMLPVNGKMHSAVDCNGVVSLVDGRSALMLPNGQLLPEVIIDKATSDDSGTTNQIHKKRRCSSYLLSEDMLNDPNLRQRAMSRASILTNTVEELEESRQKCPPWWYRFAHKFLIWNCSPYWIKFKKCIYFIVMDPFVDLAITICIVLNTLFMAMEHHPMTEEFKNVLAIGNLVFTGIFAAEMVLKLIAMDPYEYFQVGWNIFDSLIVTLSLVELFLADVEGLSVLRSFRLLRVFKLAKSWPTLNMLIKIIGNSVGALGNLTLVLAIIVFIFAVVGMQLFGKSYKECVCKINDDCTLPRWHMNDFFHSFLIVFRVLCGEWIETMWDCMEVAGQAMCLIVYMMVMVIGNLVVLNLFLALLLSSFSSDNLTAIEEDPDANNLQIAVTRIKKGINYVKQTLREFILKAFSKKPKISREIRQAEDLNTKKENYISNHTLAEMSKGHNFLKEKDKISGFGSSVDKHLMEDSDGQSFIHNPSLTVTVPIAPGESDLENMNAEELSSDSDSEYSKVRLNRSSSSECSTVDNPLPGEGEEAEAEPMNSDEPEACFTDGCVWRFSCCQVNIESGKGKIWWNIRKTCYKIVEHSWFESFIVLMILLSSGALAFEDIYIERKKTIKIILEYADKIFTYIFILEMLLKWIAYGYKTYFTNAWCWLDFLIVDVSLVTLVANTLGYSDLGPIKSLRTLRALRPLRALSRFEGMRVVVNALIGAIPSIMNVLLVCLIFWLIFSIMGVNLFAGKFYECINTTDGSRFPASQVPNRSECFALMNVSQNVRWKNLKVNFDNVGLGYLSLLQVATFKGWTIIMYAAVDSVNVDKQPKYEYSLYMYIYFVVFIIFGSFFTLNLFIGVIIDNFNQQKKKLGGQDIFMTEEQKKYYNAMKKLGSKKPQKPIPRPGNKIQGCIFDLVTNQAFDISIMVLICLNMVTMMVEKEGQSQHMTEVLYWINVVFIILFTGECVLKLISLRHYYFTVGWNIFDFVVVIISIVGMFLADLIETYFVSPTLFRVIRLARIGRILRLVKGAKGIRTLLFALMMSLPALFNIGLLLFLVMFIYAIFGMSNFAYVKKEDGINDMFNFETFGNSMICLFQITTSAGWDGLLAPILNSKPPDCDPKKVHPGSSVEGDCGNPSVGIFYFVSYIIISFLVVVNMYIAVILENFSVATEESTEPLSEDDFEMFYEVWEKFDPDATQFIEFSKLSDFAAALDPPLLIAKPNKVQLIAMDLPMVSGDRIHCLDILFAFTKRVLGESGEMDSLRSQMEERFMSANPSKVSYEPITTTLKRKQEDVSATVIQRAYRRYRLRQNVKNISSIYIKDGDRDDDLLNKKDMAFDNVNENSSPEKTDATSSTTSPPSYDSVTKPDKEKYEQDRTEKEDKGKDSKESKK
Nav 1.5, sequence (Q14524 whole entry): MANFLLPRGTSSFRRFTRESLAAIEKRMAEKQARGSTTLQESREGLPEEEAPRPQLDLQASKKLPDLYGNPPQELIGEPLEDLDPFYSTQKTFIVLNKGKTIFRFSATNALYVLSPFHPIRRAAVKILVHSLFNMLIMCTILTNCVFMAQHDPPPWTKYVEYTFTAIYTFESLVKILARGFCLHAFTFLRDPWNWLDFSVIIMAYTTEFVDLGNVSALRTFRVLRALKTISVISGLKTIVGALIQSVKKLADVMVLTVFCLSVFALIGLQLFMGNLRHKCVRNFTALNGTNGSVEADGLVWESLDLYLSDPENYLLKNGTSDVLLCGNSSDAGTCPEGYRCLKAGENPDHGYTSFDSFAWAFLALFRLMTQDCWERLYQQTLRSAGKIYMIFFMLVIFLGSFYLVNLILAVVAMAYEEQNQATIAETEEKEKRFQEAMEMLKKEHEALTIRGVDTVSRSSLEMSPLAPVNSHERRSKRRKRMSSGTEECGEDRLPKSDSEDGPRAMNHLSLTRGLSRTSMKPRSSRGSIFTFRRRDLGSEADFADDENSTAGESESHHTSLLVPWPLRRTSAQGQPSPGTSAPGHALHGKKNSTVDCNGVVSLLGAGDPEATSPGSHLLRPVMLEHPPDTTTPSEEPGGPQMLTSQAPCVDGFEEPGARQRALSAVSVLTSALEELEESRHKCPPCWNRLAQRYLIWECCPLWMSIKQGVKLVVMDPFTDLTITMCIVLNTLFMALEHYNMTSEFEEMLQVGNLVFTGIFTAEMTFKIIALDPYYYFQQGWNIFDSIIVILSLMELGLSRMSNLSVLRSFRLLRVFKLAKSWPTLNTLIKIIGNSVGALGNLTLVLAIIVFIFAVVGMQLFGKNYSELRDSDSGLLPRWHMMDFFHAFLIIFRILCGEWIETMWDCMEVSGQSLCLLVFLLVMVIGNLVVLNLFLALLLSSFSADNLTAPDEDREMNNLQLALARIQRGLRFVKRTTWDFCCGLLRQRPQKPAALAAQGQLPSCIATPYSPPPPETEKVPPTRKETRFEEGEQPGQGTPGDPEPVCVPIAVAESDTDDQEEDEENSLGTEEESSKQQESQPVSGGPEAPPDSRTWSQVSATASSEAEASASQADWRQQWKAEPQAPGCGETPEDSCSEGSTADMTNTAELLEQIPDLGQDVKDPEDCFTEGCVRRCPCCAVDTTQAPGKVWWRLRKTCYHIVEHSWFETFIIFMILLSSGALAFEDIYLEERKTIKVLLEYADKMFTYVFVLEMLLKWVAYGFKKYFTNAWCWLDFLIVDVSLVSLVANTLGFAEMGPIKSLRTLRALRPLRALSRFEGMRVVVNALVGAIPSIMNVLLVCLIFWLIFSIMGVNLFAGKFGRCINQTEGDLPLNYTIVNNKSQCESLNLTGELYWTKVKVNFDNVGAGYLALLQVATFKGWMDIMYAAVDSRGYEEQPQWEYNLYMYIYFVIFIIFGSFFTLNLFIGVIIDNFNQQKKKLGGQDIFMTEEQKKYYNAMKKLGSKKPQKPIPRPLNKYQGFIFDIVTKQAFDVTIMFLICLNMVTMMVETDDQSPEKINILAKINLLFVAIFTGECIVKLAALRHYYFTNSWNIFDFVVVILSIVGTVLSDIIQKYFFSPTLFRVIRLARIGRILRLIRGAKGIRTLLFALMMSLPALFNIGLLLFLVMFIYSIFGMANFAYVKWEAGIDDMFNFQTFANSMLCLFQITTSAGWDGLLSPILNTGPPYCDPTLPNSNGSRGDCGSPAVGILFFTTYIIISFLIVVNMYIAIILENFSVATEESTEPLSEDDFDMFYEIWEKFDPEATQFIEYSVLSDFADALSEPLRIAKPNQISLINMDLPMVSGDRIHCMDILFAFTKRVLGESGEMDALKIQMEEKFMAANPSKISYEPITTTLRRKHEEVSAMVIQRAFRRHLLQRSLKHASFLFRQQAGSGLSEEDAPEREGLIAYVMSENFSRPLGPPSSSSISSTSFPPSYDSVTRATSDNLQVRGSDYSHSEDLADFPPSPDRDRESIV

Turning to `COc1cc(-c2cccc(F)c2)ccc1-c1ncnc2cc(S(=O)(=O)Nc3nncs3)ccc12` [Example 529, 4-(3′-FLUORO-3-METHOXY-[1,1′-BIPHENYL]-4-YL)-N-(1,3,4-THIADIAZOL-2-YL)QUINAZOLINE-7-SULFONAMIDE], the IC50 on Nav 1.7 was 258 nM; on Nav 1.5 it was above 30000 nM.
As for `COc1cc(-c2cccc(F)c2)c(Cl)cc1-c1nccc2cc(S(=O)(=O)Nc3nncs3)ccc12` [Example 332, 1-(2-CHLORO-3′-FLUORO-5-METHOXY-[1,1′-BIPHENYL]-4-YL)-N-(1,3,4-THIADIAZOL-2-YL)ISOQUINOLINE-6-SULFONAMIDE], the half-inhibitory concentration (IC50) at Nav 1.7 was determined as 28 nM; on Nav 1.5 it was 20700 nM.
In the case of `COc1ccccc1-c1c(C#N)cnc2cc(S(=O)(=O)Nc3nccs3)ccc12` [Example 324, 3-CYANO-4-(2-METHOXYPHENYL)-N-(THIAZOL-2-YL)QUINOLINE-7-SULFONAMIDE], the half-maximal inhibitory concentration (IC50) at Nav 1.7 was 662 nM; on Nav 1.5 it was above 30000 nM.
Turning to `COc1cc(C(F)F)c(OC)cc1-c1nccc2cc(S(=O)(=O)Nc3nccs3)ccc12` [Example 452, 1-(4-(DIFLUOROMETHYL)-2,5-DIMETHOXYPHENYL)-N-(THIAZOL-2-YL)ISOQUINOLINE-6-SULFONAMIDE], the IC50 on Nav 1.7 is 284 nM; on Nav 1.5, above 30000 nM.
In the case of `COc1cc(-c2cc(F)cc(F)c2)c(C#N)cc1-c1nccc2cc(S(=O)(=O)Nc3ccon3)ccc12` [Example 343, 1-(2-CYANO-3′,5′-DIFLUORO-5-METHOXY-[1,1′-BIPHENYL]-4-YL)-N-(ISOXAZOL-3-YL)ISOQUINOLINE-6-SULFONAMIDE], the IC50 at Nav 1.7 is 145 nM; at Nav 1.5, above 30000 nM.
As for `COc1cc(-c2ccc(C)c(F)c2)ccc1-c1nccc2cc(S(=O)(=O)Nc3ccncn3)ccc12` [Example 471, 1-(3′-FLUORO-3-METHOXY-4′-METHYL-[1,1′-BIPHENYL]-4-YL)-N-(PYRIMIDIN-4-YL)ISOQUINOLINE-6-SULFONAMIDE], the IC50 was 56 nM on Nav 1.7 and above 30000 nM on Nav 1.5.
On to `COc1cc(-c2cc(F)cc(F)c2)c(F)cc1-c1nccc2cc(S(=O)(=O)Nc3nncs3)ccc12` [Example 364, N-(1,3,4-THIADIAZOL-2-YL)-1-(2,3′,5′-TRIFLUORO-5-METHOXY-[1,1′-BIPHENYL]-4-YL)ISOQUINOLINE-6-SULFONAMIDE], for which the IC50 is 36 nM on Nav 1.7 and above 30000 nM on Nav 1.5.
Turning to `COc1ccc(-c2cccc(F)c2)cc1-c1ccnc2cc(S(=O)(=O)Nc3ccncn3)ccc12` [Example 321, 4-(3′-FLUORO-4-METHOXY-[1,1′-BIPHENYL]-3-YL)-N-(PYRIMIDIN-4-YL)QUINOLINE-7-SULFONAMIDE], the IC50 at Nav 1.7 is 251 nM; at Nav 1.5, above 30000 nM.
With `COc1cc(C(F)(F)F)ccc1-c1n[nH]c(=O)c2cc(S(=O)(=O)Nc3nccs3)ccc12` [Example 293, 1-(2-METHOXY-4-(TRIFLUOROMETHYL)PHENYL)-4-OXO-N-(THIAZOL-2-YL)-3,4-DIHYDROPHTHALAZINE-6-SULFONAMIDE], the IC50 at Nav 1.7 was 150 nM; on Nav 1.5, above 30000 nM.
`Cc1cc(Cl)ccc1-c1ncnc2cc(S(=O)(=O)Nc3ncns3)ccc12` [Example 532]: the IC50 on Nav 1.7 was 996 nM; at Nav 1.5 it was above 30000 nM.
For the molecule `COc1cc(-c2cccc(F)c2)ccc1-c1nccc2cc(S(=O)(=O)Nc3ncns3)ccc12` [Example 369, 1-(3′-FLUORO-3-METHOXY-[1,1′-BIPHENYL]-4-YL)-N-(1,2,4-THIADIAZOL-5-YL)ISOQUINOLINE-6-SULFONAMIDE], the IC50 at Nav 1.7 was 58 nM; at Nav 1.5, above 30000 nM.
Consider `COc1ccc(-c2cccc(F)c2)cc1-c1nccc2cc(S(=O)(=O)Nc3nncs3)ccc12` [Example 345, 1-(3′-FLUORO-4-METHOXY-[1,1′-BIPHENYL]-3-YL)-N-(1,3,4-THIADIAZOL-2-YL)ISOQUINOLINE-6-SULFONAMIDE], for which the values for the IC50 on Nav 1.7 and at Nav 1.5 were 75 nM and above 30000 nM, respectively.
Regarding `COc1ccc(-c2cccc(F)c2)cc1-c1nccc2cc(S(=O)(=O)Nc3ccncn3)ccc12` [Example 348, 1-(3′-FLUORO-4-METHOXY-[1,1′-BIPHENYL]-3-YL)-N-(PYRIMIDIN-4-YL)ISOQUINOLINE-6-SULFONAMIDE], the IC50 on Nav 1.7 was 102 nM; at Nav 1.5, above 30000 nM.

These data come from patent US9012443B2 (Amgen Inc., priority 2011, dated 2015).
